According to US6461997B1, “Triazole sulfones having herbicidal activity” (Monsanto Technology LLC, priority 1999, dated 2002):

Key:
SETFA (giant foxtail) = experiment: Pre-emergence herbicidal activity, warm season; assay type: in vivo, Setaria faberi; settings: for Pre-emergence activity (GR80) SETFA: GR80 = lowest tested rate (300, 100, 30, 10 g/ha) with 80% or greater inhibition, approx. 14 days after treating, 30/21° C.
Outline: (§1)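 GR80 values derive from percent inhibition relative to untreated plants, read roughly 14 days after sowing and pre-emergence soil-surface treatment (compound in 50:50 acetone/water; rates typically 10, 30, 100, 300 g/ha). Warm-season weeds grew at 30/21° C day/night, cool-season ones at 18/13° C; an asterisk marks activity without reaching 80% at the highest rate.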

PANDI (fall panicum) = experiment: Pre-emergence herbicidal activity, warm season; assay type: in vivo, Panicum dichotomiflorum; settings: GR80 = lowest tested rate (300, 100, 30, 10 g/ha) with 80% or greater inhibition; approx. 14 days after treating; 30/21° C.
Outline: as §1

ALOMY (blackgrass) = experiment: Pre-emergence herbicidal activity, cool season; assay type: in vivo, Alopecurus myosuroides; settings: GR80 = lowest tested rate (300, 100, 30, 10 g/ha) with 80% or greater inhibition; approx. 14 days after treating; 18/13° C.
Outline: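 Each pot received seeds on sterilized fertilized topsoil, a soil cover, and a surface spray of compound (300–10 g/ha, acetone/water 50:50). Plants grew about 14 days at 30/21 °C (PANMI, DIGSA) or 18/13 °C (ALOMY, POLCO) before inhibition was rated against untreated pots to give GR80.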

[1] = tested on: AGSST (creeping bentgrass); experiment: Pre-emergence herbicidal activity, cool season; assay type: in vivo, Agrostis stolonifera; settings: GR80 = lowest tested rate (300, 100, 30, 10 g/ha) with 80% or greater inhibition; approx. 14 days after treating; 18/13° C.
Outline: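 Seeds sown in sterilised fertilised topsoil received surface-applied compound in 50:50 acetone/water, typically at 300, 100, 30 and 10 g/ha, then greenhouse-grown at 30/21° C (warm-season species) or 18/13° C (cool-season species). Percent inhibition versus untreated plants was scored at about 14 days, giving GR80; an asterisk marks activity short of 80% at the top rate.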

SORVU (shattercane) = experiment: Pre-plant incorporated (PPI) herbicidal activity, warm season; assay type: in vivo, Sorghum vulgare; settings: for PPI activity GR80, SORVU: pre-plant incorporated, lowest tested rate with 80% or greater inhibition, about 14 days
Experimental: (§2) In another set of tests, the pre-plant incorporated (PPI) activity of compounds of this invention was evaluated on the same species as for the pre-emergence tests described above. In the PPI tests the following procedure, designed to simulate PPI application, was used.
(§3) A pre-prepared topsoil mixture (described above) was placed in a pot and compacted to a depth of 1.0 to 1.25 cm from the top of the pot. Seeds of each of several monocotyledonous and dicotyledonous annual plant species were placed on top of the soil. A sufficient quantity of soil to cover the seeds and level fill the pot was weighed into an open container. A known amount of the test compound was dissolved or suspended in an organic solvent and applied by spraying to this cover soil. The cover soil was thoroughly mixed to distribute the test compound throughout the cover soil, and was then applied as a cover layer over the seeds. Untreated soil was used as a cover layer for control pots. After treatment the plants were placed in a greenhouse where they received 0.64 cm of overhead irrigation. All subsequent watering consisted of a light overhead mist and/or subirrigation as needed for germination and growth. Tables 9 and 10 below relate to warm season plant species which were placed after pre-emergence treatment in a greenhouse with a 30/21° C. day/night temperature regime. Tables 11 and 12 below relates to cool season plant species placed after pre-emergence treatment in a greenhouse or growth chamber with an 18/13° C. day/night temperature regime. Only the compounds of Examples 1, 6, 8, 11, 13 and 15-20 were included in PPI tests.
(§4) Approximately 14 days after planting and treating, the plants were observed and herbicidal efficacy recorded as percent inhibition by comparison with untreated plants.

POLCO (wild buckwheat) = experiment: Pre-plant incorporated (PPI) herbicidal activity, cool season; assay type: in vivo, Polygonum convolvulus; settings: for PPI activity GR80, POLCO: pre-plant incorporated, lowest tested rate with 80% or greater inhibition, about 14 days; for Percent inhibition POLCO: weed, PPI application
Experimental: as §2, §3, §4

STEME (common chickweed) = experiment: as above; assay type: in vivo, Stellaria media; settings: for PPI activity GR80, STEME: pre-plant incorporated, lowest tested rate with 80% or greater inhibition, about 14 days; for Percent inhibition STEME: weed, PPI application
Experimental: as §2, §3, §4

ABUTH (velvetleaf) = experiment: Pre-plant incorporated (PPI) herbicidal activity, warm season; assay type: in vivo, Abutilon theophrasti; settings: for PPI activity (GR80) ABUTH: pre-plant incorporated, GR80 = lowest tested rate with 80% or greater inhibition, approx. 14 days after treating, 30/21° C.
Experimental: as §2, §3, §4

rice (ORYSA) = experiment: Selectivity test, PPI, warm season crop; assay type: in vivo, Oryza sativa; settings: PPI application
Experimental: as §3, §4
Additional pre-emergence and PPI tests were conducted by the procedures described above, on warm and cool season weed species in the presence of crop species, to assess herbicidal selectivity. Crop species included in warm season tests were corn (Zea mays, ZEAMX), rice (Oryza sativa, ORYSA) and soybean (Glycine max, GLYMX). Crop species included in cool season tests were wheat (Triticum aestivum, TRZAW), barley (Hordeunm vulgare, HORVX) and oilseed rape (Brassica napus, BRSNS).
Tables 15 and 16 relate to pre-emergence and PPI tests respectively on warm season species. Table 17 relates to pre-emergence tests on cool season species.

CCN(CC)C(=O)n1cnc(S(=O)(=O)C(F)(F)C(=O)c2ccccc2)n1 [Example 6]
Pre-emergence activity (GR80) SETFA (SETFA (giant foxtail)): * (activity observed, at least at highest rate, but <80% inhibition)
Pre-emergence activity (GR80) PANDI (PANDI (fall panicum)): 300 g/ha
Pre-emergence activity (GR80) ALOMY (ALOMY (blackgrass)): 100 g/ha
Pre-emergence activity (GR80) AGSST [1]: 100 g/ha
PPI activity GR80, SORVU (SORVU (shattercane)): 300 g/ha
PPI activity GR80, POLCO (POLCO (wild buckwheat)): 300 g/ha
PPI activity GR80, STEME (STEME (common chickweed)): 100 g/ha

CCN(CC)C(=O)n1cnc(S(=O)(=O)C(F)(F)SCC(=O)OC)n1 [Example 11]
Pre-emergence activity (GR80) PANDI (PANDI (fall panicum)): 300 g/ha
Pre-emergence activity (GR80) ALOMY (ALOMY (blackgrass)): 300 g/ha
Percent inhibition ABUTH (ABUTH (velvetleaf); PPI application, 10 g/ha): 0%
Percent inhibition ABUTH (ABUTH (velvetleaf); PPI application, 30 g/ha): 0%
Percent inhibition ABUTH (ABUTH (velvetleaf); PPI application, 100 g/ha): 0%
Percent inhibition ABUTH (ABUTH (velvetleaf); PPI application, 300 g/ha): 20%
Percent inhibition ABUTH (ABUTH (velvetleaf); PPI application, 900 g/ha): 20%
PPI activity (GR80) ABUTH (ABUTH (velvetleaf)): 300 g/ha
Percent inhibition SORVU (SORVU (shattercane); PPI application, 10 g/ha): 0%
Percent inhibition SORVU (SORVU (shattercane); PPI application, 30 g/ha): 0%
Percent inhibition SORVU (SORVU (shattercane); PPI application, 100 g/ha): 10%
Percent inhibition SORVU (SORVU (shattercane); PPI application, 300 g/ha): 65%
Percent inhibition SORVU (SORVU (shattercane); PPI application, 900 g/ha): 100%
PPI activity GR80, SORVU (SORVU (shattercane)): 300 g/ha
PPI activity GR80, POLCO (POLCO (wild buckwheat)): * (activity observed, at least at highest rate, but <80% inhibition)
Percent inhibition POLCO (POLCO (wild buckwheat); 10 g/ha): 0%
Percent inhibition POLCO (POLCO (wild buckwheat); 30 g/ha): 0%
Percent inhibition POLCO (POLCO (wild buckwheat); 100 g/ha): 0%
Percent inhibition POLCO (POLCO (wild buckwheat); 300 g/ha): 0%
Percent inhibition POLCO (POLCO (wild buckwheat); 900 g/ha): 30%
PPI activity GR80, STEME (STEME (common chickweed)): 300 g/ha
Percent inhibition STEME (STEME (common chickweed); 10 g/ha): 0%
Percent inhibition STEME (STEME (common chickweed); 30 g/ha): 0%
Percent inhibition STEME (STEME (common chickweed); 100 g/ha): 0%
Percent inhibition STEME (STEME (common chickweed); 300 g/ha): 0%
Percent inhibition STEME (STEME (common chickweed); 900 g/ha): 30%
Percent inhibition ORYSA (rice (ORYSA); 10 g/ha): 0%
Percent inhibition ORYSA (rice (ORYSA); 30 g/ha): 0%
Percent inhibition ORYSA (rice (ORYSA); 100 g/ha): 0%
Percent inhibition ORYSA (rice (ORYSA); 300 g/ha): 40%
Percent inhibition ORYSA (rice (ORYSA); 900 g/ha): 40%

CCN(CC)C(=O)n1cnc(S(=O)(=O)C(F)(F)C(F)(F)SC)n1 [Example 14]
Pre-emergence activity (GR80) SETFA (SETFA (giant foxtail)): 100 g/ha
Pre-emergence activity (GR80) PANDI (PANDI (fall panicum)): 100 g/ha
Pre-emergence activity (GR80) ALOMY (ALOMY (blackgrass)): 100 g/ha
Pre-emergence activity (GR80) AGSST [1]: 30 g/ha

CCN(CC)C(=O)n1cnc(S(=O)(=O)C(F)F)n1 [Example 15, 1-(N,N-diethylcarbamoyl)-3-(difluoromethylsulfonyl)-1,2,4-triazole]
Pre-emergence activity (GR80) SETFA (SETFA (giant foxtail)): 100 g/ha
inhibition at 10 g/ha (SETFA (giant foxtail); Setaria faberi, pre-emergence application, 10 g/ha, read-out: Percent inhibition, weed SETFA): 0%
inhibition at 30 g/ha (SETFA (giant foxtail); Setaria faberi, pre-emergence application, 30 g/ha, read-out: Percent inhibition, weed SETFA): 0%
inhibition at 100 g/ha (SETFA (giant foxtail); Setaria faberi, pre-emergence application, 100 g/ha, read-out: Percent inhibition, weed SETFA): 99%
inhibition at 300 g/ha (SETFA (giant foxtail); Setaria faberi, pre-emergence application, 300 g/ha, read-out: Percent inhibition, weed SETFA): 70%
inhibition at 900 g/ha (SETFA (giant foxtail); Setaria faberi, pre-emergence application, 900 g/ha, read-out: Percent inhibition, weed SETFA): 100%
Pre-emergence activity (GR80) PANDI (PANDI (fall panicum)): 100 g/ha
inhibition at 10 g/ha (ABUTH (velvetleaf); Abutilon theophrasti, PPI application, 10 g/ha, read-out: Percent inhibition ABUTH): 0%
inhibition at 30 g/ha (ABUTH (velvetleaf); Abutilon theophrasti, PPI application, 30 g/ha, read-out: Percent inhibition ABUTH): 0%
inhibition at 100 g/ha (ABUTH (velvetleaf); Abutilon theophrasti, PPI application, 100 g/ha, read-out: Percent inhibition ABUTH): 20%
inhibition at 300 g/ha (ABUTH (velvetleaf); Abutilon theophrasti, PPI application, 300 g/ha, read-out: Percent inhibition ABUTH): 50%
inhibition at 900 g/ha (ABUTH (velvetleaf); Abutilon theophrasti, PPI application, 900 g/ha, read-out: Percent inhibition ABUTH): 40%
PPI activity (GR80) ABUTH (ABUTH (velvetleaf)): 100 g/ha
inhibition at 10 g/ha (SORVU (shattercane); Sorghum bicolor, PPI application, 10 g/ha, read-out: Percent inhibition SORVU): 10%
inhibition at 30 g/ha (SORVU (shattercane); Sorghum bicolor, PPI application, 30 g/ha, read-out: Percent inhibition SORVU): 60%
inhibition at 100 g/ha (SORVU (shattercane); Sorghum bicolor, PPI application, 100 g/ha, read-out: Percent inhibition SORVU): 100%
inhibition at 300 g/ha (SORVU (shattercane); Sorghum bicolor, PPI application, 300 g/ha, read-out: Percent inhibition SORVU): 100%
inhibition at 900 g/ha (SORVU (shattercane); Sorghum bicolor, PPI application, 900 g/ha, read-out: Percent inhibition SORVU): 100%
PPI activity GR80, SORVU (SORVU (shattercane)): 300 g/ha
PPI activity GR80, POLCO (POLCO (wild buckwheat)): 300 g/ha
PPI activity GR80, STEME (STEME (common chickweed)): 300 g/ha
inhibition at 10 g/ha (rice (ORYSA); Oryza sativa, 10 g/ha, read-out: Percent inhibition ORYSA): 0%
inhibition at 30 g/ha (rice (ORYSA); Oryza sativa, 30 g/ha, read-out: Percent inhibition ORYSA): 0%
inhibition at 100 g/ha (rice (ORYSA); Oryza sativa, 100 g/ha, read-out: Percent inhibition ORYSA): 0%
inhibition at 300 g/ha (rice (ORYSA); Oryza sativa, 300 g/ha, read-out: Percent inhibition ORYSA): 0%
inhibition at 900 g/ha (rice (ORYSA); Oryza sativa, 900 g/ha, read-out: Percent inhibition ORYSA): 0%
